Measured values published in patent US6916812B2, “Alpha-aminoamide derivatives as melanocortin agonists” (Bristol-Myers Squibb Company, priority 2001, dated 2005).
Where two headings read alike, the source gives them in different places.

Biological target: T1, cloned human MC4R (Homo sapiens, UniProt P32245)
T1 construct: made in house; host or cells: Hi5 insect cells (baculovirus infection); membrane preparation
Experiment: Membrane binding assay: competitive inhibition of [125I]NDP-α-MSH binding
Conditions: for inhibition at 10 µM: read-out: Displacement Rate (%) (at 10 μM)
Method: Hi5 cells are infected using the following protocol: Cells at a density of 1×10^6 cells/mL are spun down at 1000 rpm (Beckman GS-6KR centrifuge) for 10 minutes. Cells are resuspended in 10% of their original volume in a sterile 50 mL conical centrifuge tube wrapped with aluminum foil. Virus is added at a Multiplicity of Infection (MOI) of 3 and incubated for 1 hour at room temperature with gentle shaking. […] Cells are spun down in 50 mL conical centrifuge tubes at 1000 rpm for 10 minutes. Each of the resulting pellets are resuspended in 10 mL of cold (4° C.) membrane buffer (25 mM HEPES, pH 7.4, 140 mM NaCl, 1.2 mM MgCl2, 2.5 mM CaCl2, 10 μG/mL Aprotinin, 10 μG/mL Leupeptin) and Dounce homogenized using 10-12 strokes. […] The resulting pellet is resuspended in cold membrane buffer in a total of ¼ of the original volume by vortexing and aspiration using a syringe and 27 gauge needle. Protein content is determined (Bradford, Bio-Rad Protein Assay). Membranes are aliquoted in microcentrifuge tubes and quick frozen in liquid nitrogen. Store at −80° C. until use. The membrane binding buffer is composed of 25 mM HEPES, pH 7.4, 140 mM NaCl, 1.2 mM MgCl2, 2.5 mM CaCl2, 0.1% BSA. […] The mixture is filtered with Brandel Microplate 96 filter apparatus using 96-well GF/B filter presoaked in 1-% polyethyleneimine (Sigma). The filter is washed (4 times with a total of 1 mL per well) with cold wash buffer consisting of 20 mM HEPES, pH 7.4, 5 mM MgCl2. […] 100 μl of Wallac Optiphase Supermix scintillation fluid is added to each well. The top is sealed and the plates are shaken to insure that the filters are thoroughly soaked with fluid. […] Dose-response curves are fitted by […] analyses and IC50 values are calculated using ExcelFit.

[1] = at 10 μM, [125I]NDP-α-MSH displacement

T1 sequence (P32245 whole entry): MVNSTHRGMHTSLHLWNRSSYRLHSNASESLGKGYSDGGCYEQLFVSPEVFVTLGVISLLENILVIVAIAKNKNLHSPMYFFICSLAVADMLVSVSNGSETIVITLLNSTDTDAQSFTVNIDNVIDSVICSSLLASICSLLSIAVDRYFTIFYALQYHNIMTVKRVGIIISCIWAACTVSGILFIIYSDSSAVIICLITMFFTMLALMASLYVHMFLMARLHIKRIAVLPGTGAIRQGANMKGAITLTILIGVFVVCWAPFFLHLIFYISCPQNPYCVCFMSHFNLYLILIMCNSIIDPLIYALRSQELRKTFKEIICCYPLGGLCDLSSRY

inhibition at 10 µM [1] [%]	IC50 (read-out: MC4R IC50) [µM]	IC50 [µM]	Compound	inhibition at 10 µM [%]
71 to 90	1.5 to 3		CC(Cc1cccc(C(F)(F)F)c1)N1CCCN(C(=O)[C@@H](N)Cc2ccc(OCc3ccccc3)cc2)CC1 (stereo partly drawn) [Example 44]	
35 to 70	> 3		CCc1ccc(CN2CCCN(C(=O)[C@@H](N)Cc3ccc(OCc4ccccc4)cc3)CC2)s1 [Example 45]	
35 to 70	> 3		N[C@@H](Cc1ccc(OCc2ccccc2)cc1)C(=O)N1CCCN(Cc2cccc3ccccc23)CC1 [Example 47]	
35 to 70	> 3		Cc1ccsc1CN1CCCN(C(=O)[C@@H](N)Cc2ccc(OCc3ccccc3)cc2)CC1 [Example 48]	
35 to 70	> 3		CCOc1ccccc1CN1CCCN(C(=O)[C@@H](N)Cc2ccc(OCc3ccccc3)cc2)CC1 [Example 50]	
35 to 70	> 3		N[C@@H](Cc1ccc(OCc2ccccc2)cc1)C(=O)N1CCCN(Cc2ccc3ccccc3c2)CC1 [Example 51]	
35 to 70	> 3		N[C@@H](Cc1ccc(OCc2ccccc2)cc1)C(=O)N1CCCN(Cc2ccc(Cl)cc2Cl)CC1 [Example 52]	
35 to 70	> 3		COc1cccc(CN2CCCN(C(=O)[C@@H](N)Cc3ccc(OCc4ccccc4)cc3)CC2)c1OC [Example 54]	
35 to 70	> 3		N[C@@H](Cc1ccc(OCc2ccccc2)cc1)C(=O)N1CCCN(Cc2cccc(C(F)(F)F)c2)CC1 [Example 55]	
		> 3	N[C@@H](Cc1ccc(OCc2ccccc2)cc1)C(=O)N1CCCN(Cc2ccc(Br)cc2)CC1 [Example 56]	35 to 70
35 to 70	> 3		N[C@@H](Cc1ccc(OCc2ccccc2)cc1)C(=O)N1CCCN(Cc2ccccc2Cl)CC1 [Example 57]	
35 to 70	> 3		N[C@@H](Cc1ccc(OCc2ccccc2)cc1)C(=O)N1CCCN(Cc2c(F)cccc2Cl)CC1 [Example 58]	
35 to 70	> 3		COc1cc(CN2CCCN(C(=O)[C@@H](N)Cc3ccc(OCc4ccccc4)cc3)CC2)cc(Br)c1OC [Example 59]	
35 to 70	> 3		N[C@@H](Cc1ccc(OCc2ccccc2)cc1)C(=O)N1CCCN(Cc2ccccc2)CC1 [Example 60]	
35 to 70	> 3		N[C@@H](Cc1ccc(OCc2ccccc2)cc1)C(=O)N1CCCN(Cc2ccc([N+](=O)[O-])cc2)CC1 [Example 61]	
35 to 70	> 3		N[C@@H](Cc1ccc(OCc2ccccc2)cc1)C(=O)N1CCCN(Cc2cnc3ccccc3c2)CC1 [Example 62]	
35 to 70	> 3		COc1cccc(CC(C)N2CCCN(C(=O)[C@@H](N)Cc3ccc(OCc4ccccc4)cc3)CC2)c1 (stereo partly drawn) [Example 63]	
35 to 70	> 3		Cc1cccc(CN2CCCN(C(=O)[C@@H](N)Cc3ccc(OCc4ccccc4)cc3)CC2)c1 [Example 65]	
35 to 70	> 3		N[C@@H](Cc1ccc(OCc2ccccc2)cc1)C(=O)N1CCCN(Cc2cc(F)ccc2F)CC1 [Example 66]	
35 to 70	> 3		COc1ccc(CC(C)N2CCCN(C(=O)[C@@H](N)Cc3ccc(OCc4ccccc4)cc3)CC2)cc1 (stereo partly drawn) [Example 67]	
35 to 70	> 3		Cc1cccc(CN2CCCN(C(=O)[C@@H](N)Cc3ccc(OCc4ccccc4)cc3)CC2)n1 [Example 69]	
35 to 70	> 3		N[C@@H](Cc1ccc(OCc2ccccc2)cc1)C(=O)N1CCCN(Cc2ccc3c(c2)OCCO3)CC1 [Example 70]	
35 to 70	> 3		N[C@@H](Cc1ccc(OCc2ccccc2)cc1)C(=O)N1CCCN(Cc2ccncc2)CC1 [Example 76]	
35 to 70	> 3		N[C@@H](Cc1ccc(OCc2ccccc2)cc1)C(=O)N1CCCN(Cc2ccc(F)cc2)CC1 [Example 78]	
35 to 70	> 3		CN(C)c1ccc(CN2CCCN(C(=O)[C@@H](N)Cc3ccc(OCc4ccccc4)cc3)CC2)cc1 [Example 79]	
91 to 100	< 1.5		N[C@@H](Cc1ccc(OCc2ccccc2)cc1)C(=O)N1CCN(Cc2cccc(Cl)c2Cl)CC1 [Example 93]	
91 to 100	1.5 to 3		N[C@@H](Cc1ccc(OCc2ccccc2)cc1)C(=O)N1CCN(Cc2ccccc2C(F)(F)F)CC1 [Example 94]	
91 to 100	< 1.5		CCCCc1ccc(CN2CCN(C(=O)[C@@H](N)Cc3ccc(OCc4ccccc4)cc3)CC2)cc1 [Example 96]	

Second part, the compound before the results:

Compound	inhibition at 10 µM [1] [%]	IC50 (read-out: MC4R IC50) [µM]	IC50 [µM]	inhibition at 10 µM [%]
CCCCCCCN1CCCN(C(=O)[C@@H](N)Cc2ccc(OCc3ccccc3)cc2)CC1 [Example 46]	35 to 70	> 3		
CC(COc1ccccc1)N1CCCN(C(=O)[C@@H](N)Cc2ccc(OCc3ccccc3)cc2)CC1 (stereo partly drawn) [Example 49]	35 to 70	> 3		
N[C@@H](Cc1ccc(OCc2ccccc2)cc1)C(=O)N1CCCN(CC2CCCCC2)CC1 [Example 53]	35 to 70	> 3		
N[C@@H](Cc1ccc(OCc2ccccc2)cc1)C(=O)N1CCCN(Cc2ccc(Cl)c([N+](=O)[O-])c2)CC1 [Example 64]		> 3		35 to 70
N[C@@H](Cc1ccc(OCc2ccccc2)cc1)C(=O)N1CCCN(C2CCN(CCc3ccccc3)CC2)CC1 [Example 68]	35 to 70	> 3		
N[C@@H](Cc1ccc(OCc2ccccc2)cc1)C(=O)N1CCCN(Cc2cc3c(cc2Cl)OCO3)CC1 [Example 71]		> 3		35 to 70
N[C@@H](Cc1ccc(OCc2ccccc2)cc1)C(=O)N1CCCN(C2CCN(Cc3ccccc3)CC2)CC1 [Example 73]	35 to 70	> 3		
CC1CCC(N2CCCN(C(=O)[C@@H](N)Cc3ccc(OCc4ccccc4)cc3)CC2)CC1 (stereo partly drawn) [Example 74]	35 to 70	> 3		
N[C@@H](Cc1ccc(OCc2ccccc2)cc1)C(=O)N1CCCN(Cc2cc3c(cc2[N+](=O)[O-])OCO3)CC1 [Example 77]	35 to 70	> 3		
CC(C)(C)c1ccc(Oc2cccc(CN3CCN(C(=O)[C@@H](N)Cc4ccc(OCc5ccccc5)cc4)CC3)c2)cc1 [Example 80]	91 to 100	< 1.5		
N[C@@H](Cc1ccc(OCc2ccccc2)cc1)C(=O)N1CCN(Cc2ccc(-c3ccc(Cl)cc3)o2)CC1 [Example 81]	91 to 100	< 1.5		
N[C@@H](Cc1ccc(OCc2ccccc2)cc1)C(=O)N1CCN(Cc2ccccc2Sc2ccc(Cl)cc2)CC1 [Example 82]	91 to 100	< 1.5		
N[C@@H](Cc1ccc(OCc2ccccc2)cc1)C(=O)N1CCN(Cc2ccc3c(c2)Cc2ccccc2-3)CC1 [Example 83]	91 to 100	< 1.5		
N[C@@H](Cc1ccc(OCc2ccccc2)cc1)C(=O)N1CCN(Cc2ccc(Oc3ccccc3)cc2)CC1 [Example 84]	91 to 100	< 1.5		
N[C@@H](Cc1ccc(OCc2ccccc2)cc1)C(=O)N1CCN(Cc2cccc(OCc3ccccc3)c2)CC1 [Example 85]	91 to 100	< 1.5		
N[C@@H](Cc1ccc(OCc2ccccc2)cc1)C(=O)N1CCN(Cc2cccc(Oc3cc(Cl)cc(Cl)c3)c2)CC1 [Example 86]	91 to 100	< 1.5		
N[C@@H](Cc1ccc(OCc2ccccc2)cc1)C(=O)N1CCN(Cc2cn(Cc3ccccc3)c3ccccc23)CC1 [Example 87]	91 to 100	< 1.5		
N[C@@H](Cc1ccc(OCc2ccccc2)cc1)C(=O)N1CCN(Cc2ccc(/C=C/c3ccccc3)cc2)CC1 [Example 88]	91 to 100	< 1.5		
CCn1c2ccccc2c2cc(CN3CCN(C(=O)[C@@H](N)Cc4ccc(OCc5ccccc5)cc4)CC3)ccc21 [Example 89]	91 to 100	< 1.5		
N[C@@H](Cc1ccc(OCc2ccccc2)cc1)C(=O)N1CCN(Cc2cccc(Oc3cccc(C(F)(F)F)c3)c2)CC1 [Example 90]	91 to 100	< 1.5		
N[C@@H](Cc1ccc(OCc2ccccc2)cc1)C(=O)N1CCN(Cc2ccc(N(c3ccccc3)c3ccccc3)cc2)CC1 [Example 91]	91 to 100	< 1.5		
CC(C)(C)c1cc(CN2CCN(C(=O)[C@@H](N)Cc3ccc(OCc4ccccc4)cc3)CC2)cc(C(C)(C)C)c1O [Example 92]	91 to 100	< 1.5		
N[C@@H](Cc1ccc(OCc2ccccc2)cc1)C(=O)N1CCN(Cc2ccc(-c3ccccc3)cc2)CC1 [Example 95]	91 to 100	< 1.5		
